Data set [1] concerns basilar artery of a rabbit (contraction induced by KCl). In words: Contraction of removed rabbit basilar artery in a hyperpotassic medium (calcium antagonistic activity). Format: cell-based. As to conditions: Oryctolagus cuniculus, KCl at 35 mmoles, read-out: IC50 (concentration which reduces by 50% the amplitude of the contraction induced by KCl). The procedure:
The protocol of this test is the following. The rabbit is anaesthetized with pentobarbital at a dose of 30 mg/kg then sacrificed by exsanguination and decapitated at the third cervical vertebra. The basilar artery is removed (1.5 cm) between the vertebral arteries and the Willis's polygon. The basilar artery is then cut in a spiral at an angle of 45°. It is fixed by means of a curved needle between an L shaped glass support and a movement sensor (Grass, type FT03). A mechanical tension of 500 mg is applied to the vessel, before letting it reach its equilibrium condition.
For a period of 1 hour, the vessel is rinsed every 20 minutes, until a stable level is obtained.
The tonic contraction following depolarization caused by KCl is dependent on the calcic movements for it is abolished by the suppression of calcium in the survival medium.
The concentrations (in nM) are measured which reduce by 50% the amplitude of the contraction induced by the KCl at 35 mmoles.

Data set [2] is described as follows: Acute toxicity (LD50) in mice, method of Litchfield and Wilcoxon. As to conditions: mouse, in vivo, iv.

The structures appear in SMILES notation. Where only a bound is given, the exact number is not on record here.

In US5144029A, “Derivatives of 1-[3-(4-hydroxyphenyl) 1-hydroxy 1-propyl] benzene substituted in position 2 by an aminoalkyleneoxy chain, the method of preparing same and the application thereof to therapeutics” (Delalande S.A., priority 1988, dated 1992) one finds IC50 and LD50 data, which are given here for 19 compounds.

In the case of `COc1ccc(OCC(F)(F)F)c(OCCN2CCCCC2)c1C(O)CCc1ccc(O)cc1` (stereo not drawn) [compound 137], the IC50 in data set [1] is greater than 100 nM.

Regarding `COc1ccc(OCc2ccccc2)c(C(O)CCc2ccc(O)cc2)c1OCCN1CCCCC1` (stereo not drawn) [compound 146], in data set [1], the IC50 is greater than 100 nM.

Regarding `COc1ccc(O)c(C(O)CCc2ccc(O)cc2)c1OCCN1CCCCC1` (stereo not drawn) [compound 148], in data set [1], the IC50 is greater than 100 nM.

Take `CCCCOc1ccc(OC)c(OCCN2CCCCC2)c1C(O)CCc1ccc(O)cc1` (stereo not drawn) [compound 150]: the IC50 in data set [1] was 100 nM.

As to `CCCOc1ccc(OC)c(OCCN2CCCCC2)c1C(O)CCc1ccc(O)cc1` (stereo not drawn) [compound 152], the IC50 in data set [1] came out at 10 nM.

In the case of `COc1ccc(OC(C)C)c(C(O)CCc2ccc(O)cc2)c1OCCN1CCCCC1` (stereo not drawn) [compound 154], the IC50 in data set [1] was 13 nM.

`CCCCCCCCOc1ccc(OC)c(OCCN2CCCCC2)c1C(O)CCc1ccc(O)cc1` (stereo not drawn) [compound 156]: the IC50 in data set [1] is greater than 100 nM.

Take `COc1ccc(OC2CCCCC2)c(C(O)CCc2ccc(O)cc2)c1OCCN1CCCCC1` (stereo not drawn) [compound 158]: the IC50 in data set [1] is greater than 100 nM.

In the case of `CCOc1ccc(OC)c(OCCN2CCCCC2)c1C(O)CCc1ccc(O)cc1` (stereo not drawn) [compound 160], in data set [1], the IC50 was 6 nM.

For orientation: LD50 means the dose at which mortality reaches 50%. A lower LD50 goes with a more toxic substance. With `CCOc1ccc(OC)c(C(O)CCc2ccc(O)cc2)c1OCCN1CCCCC1` (stereo not drawn) [compound 164], the LD50 in data set [2] turned out to be 17 mg/kg. The IC50 in data set [1] is 24 nM.

As for `CCCOc1ccc(OC)c(C(O)CCc2ccc(O)cc2)c1OCCN1CCCCC1` (stereo not drawn) [compound 166], in data set [1], the IC50 was 120 nM.

Regarding `C=CCOc1ccc(OC)c(C(O)CCc2ccc(O)cc2)c1OCCN1CCCCC1` (stereo not drawn) [compound 167], in data set [1], the IC50 was 53 nM.

Regarding `COc1ccc(OCc2ccccc2)c(OCCN2CCCCC2)c1C(O)CCc1ccc(O)cc1` (stereo not drawn) [compound 168], the IC50 in data set [1] was greater than 100 nM.

`COc1ccc(O)c(OCCN2CCCCC2)c1C(O)CCc1ccc(O)cc1` (stereo not drawn) [compound 169]: in data set [1], the IC50 is greater than 100 nM.

As for `COCCOc1ccc(OC)c(C(O)CCc2ccc(O)cc2)c1OCCN1CCCCC1` (stereo not drawn) [compound 171], the IC50 in data set [1] was greater than 100 nM.

With `COc1ccc(OC2CCCCC2)c(OCCN2CCCCC2)c1C(O)CCc1ccc(O)cc1` (stereo not drawn) [compound 173], the IC50 in data set [1] was greater than 100 nM.

Take `COc1ccc(SC)c(OCCN2CCCCC2)c1C(O)CCc1ccc(O)cc1` (stereo not drawn) [compound 174]: in data set [2], the LD50 amounted to 22 mg/kg. Moreover, the IC50 in data set [1] came out at 27 nM.

On to `CCSc1ccc(OC)c(C(O)CCc2ccc(O)cc2)c1OCCN1CCCCC1` (stereo not drawn) [compound 175], for which, in data set [1], the IC50 came out at 31 nM.

As for `COc1ccc(C)c(C(O)CCc2ccc(O)cc2)c1OCCN1CCCCC1` (stereo not drawn) [compound 177], in data set [1], the IC50 came out at 30 nM.
